The structures appear in SMILES notation.

This assay relates to Endogenous Huntingtin Protein. Briefly: Endogenous Huntingtin Protein Assay (MSD plates, MW1 or MAB2166 capture antibody). The class given is cell-based. The conditions noted are these: Table 1. The method, boiled down: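 Endogenous huntingtin was captured overnight at 4° C on wells coated with 1 μg/mL MW1 (polyglutamine-specific) or MAB2166. Detection used rabbit #5656S and then goat anti-rabbit SULFO-TAG, both at 0.25 μg/mL and 1 h at room temperature. Plates were imaged on the MSD system in read buffer T.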
The IC50 is the concentration at which inhibition is half-maximal. Low values mean greater potency in that assay, high ones weaker potency in that assay. As for `CN(c1nc2sc(-c3ncc(Br)n4ccnc34)nc2s1)C1CCNCC1` [Compound 117, 5-(5-bromoimidazo[1,2-a]pyrazin-8-yl)-N-methyl-N-(piperidin-4-yl)[1,3]thiazolo[5,4-d][1,3]thiazol-2-amine], the IC50 is 1000 to 3000 nM.
The figure for `CC1CC(N(C)c2nc3sc(-c4ccc(-n5nccn5)c5cc[nH]c45)nc3s2)CCN1C` (centres unmarked) [Compound 118, N-(1,2-dimethylpiperidin-4-yl)-N-methyl-5-[4-(2H-1,2,3-triazol-2-yl)-1H-indol-7-yl][1,3]thiazolo[5,4-d][1,3]thiazol-2-amine] is 500 to 1000 nM; for `CC1CC(N(C)c2nc3sc(-c4ccc(Cl)c5cc[nH]c45)nc3s2)CCN1C` (centres unmarked) [Compound 119, 5-(4-chloro-1H-indol-7-yl)-N-(1,2-dimethylpiperidin-4-yl)-N-methyl[1,3]thiazolo[5,4-d][1,3]thiazol-2-amine] it is 1000 to 3000 nM; for `C[C@H]1C[C@@H](Oc2nc3sc(-c4ncc(-c5cn[nH]c5)c5cc[nH]c45)nc3s2)CCN1` [Compound 120, 7-(5-{[(2S,4S)-2-methylpiperidin-4-yl]oxy}[1,3]thiazolo[5,4-d][1,3]thiazol-2-yl)-4-(1H-pyrazol-4-yl)-1H-pyrrolo[2,3-c]pyridine] it is ≤ 100 nM.
For `CC(C)N1CCC(N(C)c2nc3sc(-c4ncc(-c5cn[nH]c5)c5cc[nH]c45)nc3s2)CC1` [Compound 121, N-methyl-N-[1-(propan-2-yl)piperidin-4-yl]-5-[4-(1H-pyrazol-4-yl)-1H-pyrrolo[2,3-c]pyridin-7-yl][1,3]thiazolo[5,4-d][1,3]thiazol-2-amine], the IC50 was ≤ 100 nM.
Next, `CCN1CCC(N(C)c2nc3sc(-c4ncc(-c5cn[nH]c5)c5cc[nH]c45)nc3s2)CC1` [Compound 122, N-(1-ethylpiperidin-4-yl)-N-methyl-5-[4-(1H-pyrazol-4-yl)-1H-pyrrolo[2,3-c]pyridin-7-yl][1,3]thiazolo[5,4-d][1,3]thiazol-2-amine]: ≤ 100 nM; `CN(c1nc2sc(-c3ncc(-c4cn[nH]c4)c4cc[nH]c34)nc2s1)C1CCN2CCCC2C1` (centres unmarked) [Compound 123, N-methyl-N-{5-[4-(1H-pyrazol-4-yl)-1H-pyrrolo[2,3-c]pyridin-7-yl][1,3]thiazolo[5,4-d][1,3]thiazol-2-yl}octahydroindolizin-7-amine]: ≤ 100 nM.
Next, `CC1CC(N(C)c2nc3sc(-c4ncc(Br)c5cc[nH]c45)nc3s2)CCN1C` (centres unmarked) [Compound 124, 5-(4-bromo-1H-pyrrolo[2,3-c]pyridin-7-yl)-N-(1,2-dimethylpiperidin-4-yl)-N-methyl[1,3]thiazolo[5,4-d][1,3]thiazol-2-amine]: 100 to 500 nM.
The figure for `CC1CC(N(C)c2nc3sc(-c4ccc(-c5cn[nH]c5)c5cc[nH]c45)nc3s2)CCN1C` (centres unmarked) [Compound 125, N-(1,2-dimethylpiperidin-4-yl)-N-methyl-5-[4-(1H-pyrazol-4-yl)-1H-indol-7-yl][1,3]thiazolo[5,4-d][1,3]thiazol-2-amine] is ≤ 100 nM; for `CC1CC(N(C)c2nc3sc(-c4ccc(-c5cn[nH]c5)cn4)nc3s2)CCN1C` (centres unmarked) [Compound 126, N-(1,2-dimethylpiperidin-4-yl)-N-methyl-5-[5-(1H-pyrazol-4-yl)pyridin-2-yl][1,3]thiazolo[5,4-d][1,3]thiazol-2-amine] it is 100 to 500 nM.
Consider `CC1CC(N(C)c2nc3sc(-c4ccc(-c5cn[nH]c5)nc4)nc3s2)CCN1C` (centres unmarked) [Compound 127, N-(1,2-dimethylpiperidin-4-yl)-N-methyl-5-[6-(1H-pyrazol-4-yl)pyridin-3-yl][1,3]thiazolo[5,4-d][1,3]thiazol-2-amine], for which the IC50 is 1000 to 3000 nM.
Next, `CN(c1nc2sc(-c3ccc(-c4cn[nH]c4)c4cc[nH]c34)nc2s1)C1CC(C)(C)NC(C)(C)C1` [Compound 128, N-methyl-5-[4-(1H-pyrazol-4-yl)-1H-indol-7-yl]-N-(2,2,6,6-tetramethylpiperidin-4-yl)[1,3]thiazolo[5,4-d][1,3]thiazol-2-amine]: ≤ 100 nM.
The figure for `CC1CC(N(C)c2nc3sc(-c4ncc(-c5cn[nH]c5)cn4)nc3s2)CCN1C` (centres unmarked) [Compound 129, N-(1,2-dimethylpiperidin-4-yl)-N-methyl-5-[5-(1H-pyrazol-4-yl)pyrimidin-2-yl][1,3]thiazolo[5,4-d][1,3]thiazol-2-amine] is 100 to 500 nM; for `CC1CC(N(C)c2nc3sc(-c4cnc(-c5cn[nH]c5)nc4)nc3s2)CCN1C` (centres unmarked) [Compound 130, N-(1,2-dimethylpiperidin-4-yl)-N-methyl-5-[2-(1H-pyrazol-4-yl)pyrimidin-5-yl][1,3]thiazolo[5,4-d][1,3]thiazol-2-amine] it is 1000 to 3000 nM.
Next, `CC1CC(N(C)c2nc3sc(-n4cnc(-c5cn[nH]c5)cc4=O)nc3s2)CCN1C` (centres unmarked) [Compound 131, 3-{5-[(1,2-dimethylpiperidin-4-yl)(methyl)amino][1,3]thiazolo[5,4-d][1,3]thiazol-2-yl}-6-(1H-pyrazol-4-yl)pyrimidin-4(3H)-one]: 100 to 500 nM.
`CC1CC(N(C)c2nc3sc(-c4cnc(-c5cn[nH]c5)cn4)nc3s2)CCN1C` (centres unmarked) [Compound 132, N-(1,2-dimethylpiperidin-4-yl)-N-methyl-5-[5-(1H-pyrazol-4-yl)pyrazin-2-yl][1,3]thiazolo[5,4-d][1,3]thiazol-2-amine] gave a 50% inhibitory concentration (IC50) of 100 to 500 nM.
Next, `CN(c1nc2sc(-c3ccc(-c4cn[nH]c4)cn3)nc2s1)C1CC(C)(C)NC(C)(C)C1` [Compound 133, N-methyl-5-[5-(1H-pyrazol-4-yl)pyridin-2-yl]-N-(2,2,6,6-tetramethylpiperidin-4-yl)[1,3]thiazolo[5,4-d][1,3]thiazol-2-amine]: ≤ 100 nM.
The figure for `c1cc2c(-c3cn[nH]c3)cnc(-c3nc4sc(N5CCC56CCCNC6)nc4s3)c2[nH]1` (centres unmarked) [Compound 134, 7-[5-(1,6-diazaspiro[3.5]nonan-1-yl)[1,3]thiazolo[5,4-d][1,3]thiazol-2-yl]-4-(1H-pyrazol-4-yl)-1H-pyrrolo[2,3-c]pyridine] is ≤ 100 nM.
Next, `CN(c1nc2sc(-c3ccc(-c4cn[nH]c4)nc3)nc2s1)C1CC(C)(C)NC(C)(C)C1` [Compound 135, N-methyl-5-[6-(1H-pyrazol-4-yl)pyridin-3-yl]-N-(2,2,6,6-tetramethylpiperidin-4-yl)[1,3]thiazolo[5,4-d][1,3]thiazol-2-amine]: 100 to 500 nM; `CN(c1nc2sc(-c3ncc(-c4cn[nH]c4)c4[nH]cnc34)nc2s1)C1CC(C)(C)NC(C)(C)C1` [Compound 136, N-methyl-5-[7-(1H-pyrazol-4-yl)-1H-imidazo[4,5-c]pyridin-4-yl]-N-(2,2,6,6-tetramethylpiperidin-4-yl)[1,3]thiazolo[5,4-d][1,3]thiazol-2-amine]: ≤ 100 nM.
In the case of `CN(c1nc2sc(-c3cnc(-c4cn[nH]c4)nc3)nc2s1)C1CC(C)(C)NC(C)(C)C1` [Compound 137, N-methyl-5-[2-(1H-pyrazol-4-yl)pyrimidin-5-yl]-N-(2,2,6,6-tetramethylpiperidin-4-yl)[1,3]thiazolo[5,4-d][1,3]thiazol-2-amine], the IC50 was ≤ 100 nM.
Turning to `CN1CCC2(CC1)CN(c1nc3sc(-c4ncc(-c5cn[nH]c5)c5cc[nH]c45)nc3s1)C2` [Compound 138, 7-[5-(7-methyl-2,7-diazaspiro[3.5]nonan-2-yl)[1,3]thiazolo[5,4-d][1,3]thiazol-2-yl]-4-(1H-pyrazol-4-yl)-1H-pyrrolo[2,3-c]pyridine], the half-maximal inhibitory concentration (IC50) was ≤ 100 nM.
Next, `CN(c1nc2sc(-c3ncc(-c4cn[nH]c4)c4cc[nH]c34)nc2s1)C1CCNCC1` [Compound 139, N-methyl-N-(piperidin-4-yl)-5-[4-(1H-pyrazol-4-yl)-1H-pyrrolo[2,3-c]pyridin-7-yl][1,3]thiazolo[5,4-d][1,3]thiazol-2-amine]: ≤ 100 nM.
Next, `CN(c1nc2sc(-n3cnc(-c4cn[nH]c4)cc3=O)nc2s1)C1CC(C)(C)NC(C)(C)C1` [Compound 140, 3-{5-[methyl(2,2,6,6-tetramethylpiperidin-4-yl)amino][1,3]thiazolo[5,4-d][1,3]thiazol-2-yl}-6-(1H-pyrazol-4-yl)pyrimidin-4(3H)-one]: ≤ 100 nM; `CN(c1nc2sc(-c3ccc(-c4cn[nH]c4)cc3)nc2s1)[C@@H]1C[C@H]2CC[C@@H](C1)N2` [Compound 141, N-[(1R,3s,5S)-8-azabicyclo[3.2.1]octan-3-yl]-N-methyl-5-[4-(1H-pyrazol-4-yl)phenyl][1,3]thiazolo[5,4-d][1,3]thiazol-2-amine]: ≤ 100 nM.
Next, `CN(c1nc2sc(-c3cnc(-c4cn[nH]c4)cn3)nc2s1)[C@H]1C[C@]2(C)CC[C@](C)(C1)N2` [Compound 142, N-[(1R,3s,5S)-1,5-dimethyl-8-azabicyclo[3.2.1]octan-3-yl]-N-methyl-5-[5-(1H-pyrazol-4-yl)pyrazin-2-yl][1,3]thiazolo[5,4-d][1,3]thiazol-2-amine]: ≤ 100 nM.
With `CC1(C)CC(Oc2nc3sc(-c4cnc(-c5cn[nH]c5)cn4)nc3s2)CC(C)(C)N1` [Compound 143, 2-[5-(1H-pyrazol-4-yl)pyrazin-2-yl]-5-[(2,2,6,6-tetramethylpiperidin-4-yl)oxy][1,3]thiazolo[5,4-d][1,3]thiazole], the IC50 was ≤ 100 nM.
In the case of `CN(c1nc2sc(-n3cnc(-c4cn[nH]c4)cc3=O)nc2s1)[C@H]1C[C@]2(C)CC[C@](C)(C1)N2` [Compound 144, 3-(5-{[(1R,3s,5S)-1,5-dimethyl-8-azabicyclo[3.2.1]octan-3-yl](methyl)amino}[1,3]thiazolo[5,4-d][1,3]thiazol-2-yl)-6-(1H-pyrazol-4-yl)pyrimidin-4(3H)-one], the 50% inhibitory concentration (IC50) is ≤ 100 nM.
Next, `CN(c1nc2sc(-c3ncc(-c4cn[nH]c4)cc3O)nc2s1)C1CCN2CCCC2C1` (centres unmarked) [Compound 145, 2-{5-[methyl(octahydroindolizin-7-yl)amino][1,3]thiazolo[5,4-d][1,3]thiazol-2-yl}-5-(1H-pyrazol-4-yl)pyridin-3-ol]: ≤ 100 nM.

The values above are taken from patent publication US11685746B2, “Heteroaryl compounds for treating Huntington's disease” (PTC THERAPEUTICS, INC., priority 2018, dated 2023).
